In this assay the target is T1, Ba/F3-FL-TYK2-P760L cells (Homo sapiens, UniProt P29597, P760L, cells depend on it).
T1 construct: BaF3-FL-T2P760L (nM)
The assay is described as follows: Anti-proliferative assay, Ba/F3-FL-TYK2-P760L cells (Cell-Titer Glo). The class given is cell-based. The following applies: 72 h, read-out: BaF3-FL-T2P760L IC50. The essentials:
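Compound exposure ran 72 h at 37 °C in 5% CO2 across nine 3-fold concentrations from a 20 μM top dose, added 24 h after seeding 2000 cells/well.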

SMILES strings stand for the structures.

T1 sequence (P29597 whole entry P760L): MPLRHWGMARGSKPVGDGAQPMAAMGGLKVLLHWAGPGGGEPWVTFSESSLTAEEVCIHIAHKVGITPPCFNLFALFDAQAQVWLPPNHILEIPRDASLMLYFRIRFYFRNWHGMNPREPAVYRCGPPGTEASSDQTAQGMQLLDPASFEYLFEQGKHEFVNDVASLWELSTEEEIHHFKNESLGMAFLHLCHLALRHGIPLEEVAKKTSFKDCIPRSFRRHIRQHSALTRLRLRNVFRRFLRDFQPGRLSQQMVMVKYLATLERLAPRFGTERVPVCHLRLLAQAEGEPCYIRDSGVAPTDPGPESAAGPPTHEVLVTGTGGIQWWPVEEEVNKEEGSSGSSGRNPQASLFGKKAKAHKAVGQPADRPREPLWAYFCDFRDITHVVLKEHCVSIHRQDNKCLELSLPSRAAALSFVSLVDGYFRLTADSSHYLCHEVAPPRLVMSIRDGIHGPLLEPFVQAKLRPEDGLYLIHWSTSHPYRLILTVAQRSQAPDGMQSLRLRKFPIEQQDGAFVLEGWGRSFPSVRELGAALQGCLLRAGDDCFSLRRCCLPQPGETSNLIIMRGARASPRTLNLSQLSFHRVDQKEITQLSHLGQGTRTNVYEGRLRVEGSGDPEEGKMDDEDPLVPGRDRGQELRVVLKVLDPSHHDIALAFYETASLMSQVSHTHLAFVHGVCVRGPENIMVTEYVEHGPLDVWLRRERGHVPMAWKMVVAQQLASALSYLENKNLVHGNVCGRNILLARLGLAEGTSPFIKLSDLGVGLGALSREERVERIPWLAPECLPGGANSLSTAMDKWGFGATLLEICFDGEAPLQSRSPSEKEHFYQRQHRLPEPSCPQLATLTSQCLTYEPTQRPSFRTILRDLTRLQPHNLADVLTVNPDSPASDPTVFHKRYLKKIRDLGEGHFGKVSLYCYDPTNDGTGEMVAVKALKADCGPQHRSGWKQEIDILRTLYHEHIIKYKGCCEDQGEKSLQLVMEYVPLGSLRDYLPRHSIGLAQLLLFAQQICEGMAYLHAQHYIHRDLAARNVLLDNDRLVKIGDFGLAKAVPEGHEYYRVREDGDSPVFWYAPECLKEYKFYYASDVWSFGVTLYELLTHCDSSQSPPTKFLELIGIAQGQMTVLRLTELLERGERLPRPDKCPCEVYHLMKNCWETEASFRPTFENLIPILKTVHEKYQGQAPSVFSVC

In the case of `[2H]C([2H])([2H])NC(=O)c1cnc(Nc2ccc(F)cn2)cc1Nc1ccn2ncc(C)c2c1OC` [Example 222, 6-((5-Fluoropyridin-2-yl)amino)-4-((4-methoxy-3-methylpyrazolo[1,5-a]pyridin-5-yl)amino)-N-(methyl-d3)nicotinamide], the GI50 was 155 nM.

Take `[2H]C([2H])([2H])NC(=O)c1cnc(NC(=O)C2CC2)cc1Nc1ccc2cnn(C([2H])([2H])[2H])c2c1OC` [Example 140, 6-(Cyclopropanecarboxamido)-4-((7-methoxy-1-(methyl-d3)-1H-indazol-6-yl)amino)-N-(methyl-d3)nicotinamide]: the GI50 turned out to be 82.4 nM.

As to `CNC(=O)c1cnc(NC(=O)C2CC2)cc1Nc1csc2c(C)cn(C)c(=O)c12` [Example 188, 6-(Cyclopropanecarboxamido)-4-((5,7-dimethyl-4-oxo-4,5-dihydrothieno[3,2-c]pyridin-3-yl)amino)-N-methylnicotinamide], the GI50 worked out at 267 nM.

Turning to `[2H]C([2H])([2H])NC(=O)c1nnc2cc1Nc1cc(cc(-c3ncn(C4CC4)n3)c1OC)COCc1cc(F)cc(n1)N2` [Example 88, 11-(1-Cyclopropyl-1H-1,2,4-triazol-3-yl)-19-fluoro-10-methoxy-N-(methyl-d3)-15-oxa-2,4,5,8,21-pentaazatetracyclo[15.3.1.1^{3,7}.1^{9,13}]tricosa-1(21),3,5,7(23),9(22),10,12,17,19-nonaene-6-carboxamide], the GI50 turned out to be 46.9 nM.

Regarding `[2H]C([2H])([2H])NC(=O)c1cnc(NC(=O)C2CC2)cc1Nc1cn(C)c2ccn(CC=C)c(=O)c12` [Example 109, 4-((5-Allyl-1-methyl-4-oxo-4,5-dihydro-1H-pyrrolo[3,2-c]pyridin-3-yl)amino)-6-(cyclopropanecarboxamido)-N-(methyl-d3)nicotinamide], the GI50 came out at 147 nM.

For the compound `CNC(=O)c1cnc(Nc2ccc(F)cn2)cc1Nc1cccc(C(F)(F)F)c1OC` [Example 55, 6-((5-Fluoropyridin-2-yl)amino)-4-((2-methoxy-3-(trifluoromethyl)phenyl)amino)-N-methylnicotinamide], the GI50 is 627 nM.

On to `CNC(=O)c1cnc(NC(=O)C2CC2)cc1Nc1cn(C)c2ncn([C@@H](C)C(F)(F)F)c(=O)c12` (single isomer, unassigned) [Example 234B, (S*)-6-(cyclopropanecarboxamido)-N-(methyl-d3)-4-((7-methyl-4-oxo-3-(1,1,1-trifluoropropan-2-yl)-4,7-dihydro-3H-pyrrolo[2,3-d]pyrimidin-5-yl)amino)nicotinamide], for which the GI50 was 599 nM.

Regarding `[2H]C([2H])([2H])NC(=O)c1cnc(Nc2cnn(C3CCOC3)c2)nc1Nc1cccc(-c2ncn(C)n2)c1OC` (centres unmarked) [Example 31, 4-((2-Methoxy-3-(1-methyl-1H-1,2,4-triazol-3-yl)phenyl)amino)-N-(methyl-d3)-2-((1-(tetrahydrofuran-3-yl)-1H-pyrazol-4-yl)amino)pyrimidine-5-carboxamide], the GI50 was found to be 303 nM.

`CCn1cc(Nc2cc(NC(=O)C3CC3)ncc2C(=O)NC)c2c(=O)n([C@@H](C)C(F)(F)F)cnc21` (single isomer, unassigned) [Example 254B, (S*)-6-(cyclopropanecarboxamido)-4-((7-ethyl-4-oxo-3-(1,1,1-trifluoropropan-2-yl)-4,7-dihydro-3H-pyrrolo[2,3-d]pyrimidin-5-yl)amino)-N-(methyl-d3)nicotinamide]: the GI50 was 934 nM.

For the compound `[2H]C([2H])([2H])NC(=O)c1cnc(NC(=O)[C@H]2C[C@H]2F)cc1Nc1cn(C)c2ccn(CC)c(=O)c12` [Example 101, 4-[(5-Ethyl-1-methyl-4-oxo-pyrrolo[3,2-c]pyridin-3-yl)amino]-6-[[(1R,2R)-2-fluorocyclopropanecarbonyl]amino]-N-(methyl-d3)pyridine-3-carboxamide], the GI50 was found to be 809 nM.

Take `[2H]C([2H])([2H])NC(=O)c1cnc2cc1Nc1cc(cc(-c3ncn(C(C)C)n3)c1OC)COCc1cccc(n1)N2` [Example 84, 10-Methoxy-N-(methyl-d3)-11-[1-(propan-2-yl)-1H-1,2,4-triazol-3-yl]-15-oxa-2,4,8,21-tetraazatetracyclo[15.3.1.1^{3,7}.1^{9,13}]tricosa-1(21),3,5,7(23),9(22),10,12,17,19-nonaene-6-carboxamide]: the GI50 turned out to be 676 nM.

Consider `[2H]C([2H])([2H])NC(=O)c1cnc(Nc2ccc(F)cn2)cc1Nc1cn(C)c2c(F)cn(CC(F)(F)F)c(=O)c12` [Example 124, 4-((7-Fluoro-1-methyl-4-oxo-5-(2,2,2-trifluoroethyl)-4,5-dihydro-1H-pyrrolo[3,2-c]pyridin-3-yl)amino)-6-((5-fluoropyridin-2-yl)amino)-N-(methyl-d3)nicotinamide], for which the GI50 was determined as 34.8 nM.

With `[2H]C([2H])([2H])NC(=O)c1nnc2cc1Nc1cc(cc(-c3nc(C)co3)c1OC)COCc1nc(ccc1F)N2` [Example 93, 18-Fluoro-10-methoxy-N-(methyl-d3)-11-(4-methyl-1,3-oxazol-2-yl)-15-oxa-2,4,5,8,21-pentaazatetracyclo[15.3.1.1^{3,7}.1^{9,13}]tricosa-1(20),3,5,7(23),9(22),10,12,17(21),18-nonaene-6-carboxamide], the GI50 was 97 nM.

For `CCCn1ncc2ccc(Nc3cc(NC(=O)C4CC4)ncc3C(=O)NC)c(OC)c21` [Example 51, 6-(Cyclopropanecarboxamido)-4-((7-methoxy-1-propyl-1H-indazol-6-yl)amino)-N-methylnicotinamide], the GI50 worked out at 80.2 nM.

For the compound `[2H]C([2H])([2H])NC(=O)c1cnc(Nc2ccc(C)nn2)nc1Nc1cccc(-c2ncn(C)n2)c1OC` [Example 61, 4-((2-Methoxy-3-(1-methyl-1H-1,2,4-triazol-3-yl)phenyl)amino)-N-(methyl-d3)-2-((6-methylpyridazin-3-yl)amino)pyrimidine-5-carboxamide], the GI50 is 3510 nM.

As for `[2H]C([2H])([2H])NC(=O)c1cnc(NC(=O)C2CC2)cc1Nc1ccn2ncc(C([2H])([2H])[2H])c2c1OC` [Example 220, 6-(Cyclopropanecarboxamido)-4-((4-methoxy-3-(methyl-d3)pyrazolo[1,5-a]pyridin-5-yl)amino)-N-(methyl-d3)nicotinamide], the GI50 was 541 nM.

Take `COC(=O)c1cnc(NC(=O)C2CC2)cc1Nc1cnc2ccn(CC(F)(F)F)c(=O)n12` [Example 48, Methyl 6-(cyclopropanecarboxamido)-4-((5-oxo-6-(2,2,2-trifluoroethyl)-5,6-dihydroimidazo[1,2-c]pyrimidin-3-yl)amino)nicotinate]: the GI50 is 3810 nM.

On to `[2H]C([2H])([2H])NC(=O)c1nnc(NC(=O)C2CC2)cc1Nc1csc2ccn(C)c(=O)c12` [Example 196, 6-(Cyclopropanecarboxamido)-N-(methyl-d3)-4-((5-methyl-4-oxo-4,5-dihydrothieno[3,2-c]pyridin-3-yl)amino)pyridazine-3-carboxamide], for which the GI50 was found to be 45.7 nM.

Take `[2H]C([2H])([2H])NC(=O)c1cnc(Nc2ccc(F)cn2)cc1Nc1cn(C)c2c(F)cn(C)c(=O)c12` [Example 122, 4-((7-Fluoro-1,5-dimethyl-4-oxo-4,5-dihydro-1H-pyrrolo[3,2-c]pyridin-3-yl)amino)-6-((5-fluoropyridin-2-yl)amino)-N-(methyl-d3)nicotinamide]: the GI50 was 34.7 nM.

For the compound `[2H]C([2H])([2H])NC(=O)c1nnc2cc1Nc1cc(cc(-c3ccc(F)cc3)c1OC)COCc1nc(ccc1F)N2` [Example 73, 18-Fluoro-11-(4-fluorophenyl)-10-methoxy-N-(methyl-d3)-15-oxa-2,4,5,8,21-pentaazatetracyclo[15.3.1.1^{3,7}.1^{9,13}]tricosa-1(20),3,5,7(23),9(22),10,12,17(21),18-nonaene-6-carboxamide], the GI50 turned out to be 7980 nM.

Take `CCc1nc2c(Nc3cc(NC(=O)C4CC4)ncc3C(=O)NC)cn(C)c2c(=O)n1C` [Example 247, 6-(Cyclopropanecarboxamido)-4-((2-ethyl-3,5-dimethyl-4-oxo-4,5-dihydro-3H-pyrrolo[3,2-d]pyrimidin-7-yl)amino)-N-methylnicotinamide]: the GI50 is > 5000 nM.

Consider `CCn1ccc2c(c(Nc3nc(Nc4ccc(F)cc4F)ncc3C(=O)NC)cn2C)c1=O` [Example 9, 2-((2,4-Difluorophenyl)amino)-4-((5-ethyl-1-methyl-4-oxo-4,5-dihydro-1H-pyrrolo[3,2-c]pyridin-3-yl)amino)-N-methylpyrimidine-5-carboxamide], for which the GI50 worked out at 740 nM.

With `CNC(=O)c1cnc(NC(=O)C2CC2)cc1Nc1ccc2nn3c(c2c1OC)CCC3` [Example 156, 6-(Cyclopropanecarboxamido)-4-((9-methoxy-2,3-dihydro-1H-pyrrolo[1,2-b]indazol-8-yl)amino)-N-methylnicotinamide], the GI50 came out at 2900 nM.

`[2H]C([2H])([2H])NC(=O)c1cnc(NC(=O)[C@@H]2C[C@H]2F)cc1Nc1cn(C)c2ccn(CC)c(=O)c12` [Example 103, 4-[(5-Ethyl-1-methyl-4-oxo-pyrrolo[3,2-c]pyridin-3-yl)amino]-6-[[(1S,2R)-2-fluorocyclopropanecarbonyl]amino]-N-(methyl-d3)pyridine-3-carboxamide]: the GI50 turned out to be 761 nM.

Take `[2H]C([2H])([2H])NC(=O)c1cnc2cc1Nc1cc(cc(-c3ncn(C4CC4)n3)c1OC)COCc1cc(F)cc(n1)N2` [Example 89, 11-(1-Cyclopropyl-1H-1,2,4-triazol-3-yl)-19-fluoro-10-methoxy-N-(methyl-d3)-15-oxa-2,4,8,21-tetraazatetracyclo[15.3.1.1^{3,7}.1^{9,13}]tricosa-1(21),3,5,7(23),9(22),10,12,17,19-nonaene-6-carboxamide]: the GI50 came to 32.2 nM.

As for `[2H]C([2H])([2H])NC(=O)c1cnc(Nc2ccn(C3CC3)n2)nc1Nc1cccc(-c2ncn(C)n2)c1OC` [Example 146, 2-((1-Cyclopropyl-1H-pyrazol-3-yl)amino)-4-((2-methoxy-3-(1-methyl-1H-1,2,4-triazol-3-yl)phenyl)amino)-N-(methyl-d3)pyrimidine-5-carboxamide], the GI50 amounted to 832 nM.

(Values after patent publication US20250115597A1, “TYK2 INHIBITORS AND COMPOSITIONS AND METHODS THEREOF” (LYNK PHARMACEUTICALS CO. LTD., priority 2021, published 2025).)
